Tests used:
[1] = tested on: Human immunodeficiency virus 1; experiment: Antiviral activity against wild type HIV1 3B infected in human MT4 cells assessed as reduction of virus-induced cytopathic effect after 5 days by MTT assay; assay type: functional, organism-based; details: Human immunodeficiency virus 1, 3B, MT4, 120 h
[2] = tested on: Human immunodeficiency virus 2; experiment: Antiviral activity against wild type HIV2 ROD infected in human MT4 cells assessed as reduction of virus-induced cytopathic effect after 5 days by MTT assay; assay type: functional, organism-based; details: Human immunodeficiency virus 2, ISOLATE ROD, MT4, 120 h
[3] = Selectivity index, ratio of CC50 for human MT4 cells to EC50 for wild type HIV1 3B infected in human MT4 cells; assay type: toxicity, cell-based; details: read-out: Ratio CC50/EC50
[4] = Cytotoxicity against human MT4 cells assessed as reduction in viability of mock infected cells after 5 days MTT assay; assay type: cell-based
[5] = Selectivity index, ratio of CC50 for human MT4 cells to EC50 for wild type HIV2 ROD infected in human MT4 cells; assay type: toxicity, cell-based; details: read-out: Ratio CC50/EC50
[6] = tested on: Human immunodeficiency virus 1; experiment: Antiviral activity against HIV1 […] expressing reverse transcriptase F227L/V106A double mutant infected in human MT4 cells assessed as reduction of virus-induced cytopathic effect after 5 days by MTT assay; assay type: functional, organism-based; details: Human immunodeficiency virus 1, MT4, 120 h
[7] = tested on: Human immunodeficiency virus 1; experiment: Antiviral activity against HIV1 3B expressing reverse transcriptase Y188L mutant infected in human MT4 cells assessed as reduction of virus-induced cytopathic effect after 5 days by MTT assay; assay type: functional, organism-based; details: Human immunodeficiency virus 1, 3B, MT4, 120 h
[8] = tested on: Human immunodeficiency virus 1; experiment: Antiviral activity against HIV1 3B expressing reverse transcriptase Y181C mutant infected in human MT4 cells assessed as reduction of virus-induced cytopathic effect after 5 days by MTT assay; assay type: functional, organism-based; details: Human immunodeficiency virus 1, 3B, MT4, 120 h
[9] = tested on: Human immunodeficiency virus 1; experiment: Antiviral activity against HIV1 3B expressing reverse transcriptase E138K mutant infected in human MT4 cells assessed as reduction of virus-induced cytopathic effect after 5 days by MTT assay; assay type: functional, organism-based; details: Human immunodeficiency virus 1, 3B, MT4, 120 h
[10] = tested on: Human immunodeficiency virus 1; experiment: Antiviral activity against HIV1 3B expressing reverse transcriptase K103N mutant infected in human MT4 cells assessed as reduction of virus-induced cytopathic effect after 5 days by MTT assay; assay type: functional, organism-based; details: Human immunodeficiency virus 1, 3B, MT4, 120 h
[11] = tested on: Human immunodeficiency virus 1; experiment: Antiviral activity against HIV1 3B expressing reverse transcriptase L100I mutant infected in human MT4 cells assessed as reduction of virus-induced cytopathic effect after 5 days by MTT assay; assay type: functional, organism-based; details: Human immunodeficiency virus 1, 3B, MT4, 120 h
[12] = tested on: Human immunodeficiency virus 1; experiment: Antiviral activity against HIV1 RES056 infected in human MT4 cells assessed as reduction of virus-induced cytopathic effect after 5 days by MTT assay; assay type: functional, organism-based; details: Human immunodeficiency virus 1, RES056, MT4, 120 h
[13] = tested on: Human immunodeficiency virus 1; experiment: Potency index, ratio of efavirenz EC50 to compound EC50 for antiviral activity against HIV1 3B expressing reverse transcriptase K103N mutant infected in human MT4 cells; assay type: functional
[14] = tested on: Human immunodeficiency virus 1; experiment: Potency index, ratio of delavirdine EC50 to compound EC50 for antiviral activity against HIV1 3B expressing reverse transcriptase K103N mutant infected in human MT4 cells; assay type: functional
[15] = tested on: Human immunodeficiency virus 1; experiment: Potency index, ratio of nevirapine EC50 to compound EC50 for antiviral activity against HIV1 3B expressing reverse transcriptase K103N mutant infected in human MT4 cells; assay type: functional
[16] = target: Human immunodeficiency virus type 1 reverse transcriptase (Human immunodeficiency virus 1, UniProt Q72547); experiment: Inhibition of HIV1 reverse transcriptase assessed as reduction in biotin-dUTP incorporation using poly(rA)-oligo(dT) as template/primer and digoxigenin-dUTP/biotin-dUTP/dTTP nucleotides incubated for 1 hr by ELISA

| SMILES | EC50 [1] [nM] | EC50 [2] [nM] | selectivity ratio [3] | CC50 at 120 h [4] [nM] | selectivity ratio [5] | EC50 [6] [nM] | EC50 [7] [nM] | EC50 [8] [nM] | EC50 [9] [nM] | EC50 [10] [nM] | EC50 [11] [nM] | EC50 [12] [nM] | Ratio EC50 [13] | Ratio EC50 [14] | Ratio EC50 [15] | IC50 [16] [nM] |
| --- | --- | --- | --- | --- | --- | --- | --- | --- | --- | --- | --- | --- | --- | --- | --- | --- |
| Cc1cc(C#N)cc(C)c1Oc1cc(NCC2CC2)nc(Nc2ccc(C#N)cc2)c1 | 1520 | > 125000 | > 201 | > 305000 | < 1 | – | – | – | – | – | – | – | – | – | – | – |
| Cc1cc(C)c(Oc2cc(NCCN3CCOCC3)nc(Nc3ccc(C#N)cc3)c2)c(C)c1 | 72 | > 11100 | 339 | 24300 | < 1 | 4520 | 9450 | 4930 | 4590 | 140 | 5800 | 8310 | – | – | – | – |
| Cc1cc(C#N)cc(C)c1Oc1cc(NCCC#N)nc(Nc2ccc(C#N)cc2)c1 | 100 | > 3210 | 75 | 7850 | < 1 | > 7850 | > 7850 | > 7850 | 940 | 180 | 1340 | 11100 | – | – | – | – |
| Cc1cc(C#N)cc(C)c1Oc1cc(Nc2ccc(C#N)cc2)nc(NC2CC2)c1 | 220 | > 4060 | 47 | 10300 | < 1 | – | – | – | – | – | – | – | – | – | – | – |
| Cc1cc(C)c(Oc2cc(NCCN3CCNCC3)nc(Nc3ccc(C#N)cc3)c2)c(C)c1 | 710 | > 1650 | 5 | 3610 | < 1 | – | – | – | – | – | – | – | – | – | – | – |
| Cc1cc(C#N)cc(C)c1Oc1cc(NCCN2CCOCC2)nc(Nc2ccc(C#N)cc2)c1 | 82 | > 17400 | 451 | 37200 | < 1 | 6040 | 8100 | 7550 | 6410 | 49 | 8460 | 4720 | 3 | 50 | 140 | – |
| COCCNc1cc(Oc2c(C)cc(C#N)cc2C)cc(Nc2ccc(C#N)cc2)n1 | 250 | > 40700 | ≥ 394 | ≥ 98500 | < 1 | – | – | – | – | – | – | – | – | – | – | – |
| COC(CNc1cc(Oc2c(C)cc(C)cc2C)cc(Nc2ccc(C#N)cc2)n1)OC | 1630 | > 14500 | 21 | 33500 | < 1 | – | – | – | – | – | – | – | – | – | – | – |
| Cc1cc(C)c(Oc2cc(NCCN(C)C)nc(Nc3ccc(C#N)cc3)c2)c(C)c1 | 43 | > 1940 | 109 | 4670 | < 1 | – | – | – | – | – | – | – | – | – | – | – |
| COC(CNc1cc(Oc2c(C)cc(C#N)cc2C)cc(Nc2ccc(C#N)cc2)n1)OC | 840 | > 125000 | > 335 | > 282000 | < 1 | – | – | – | – | – | – | – | – | – | – | – |
| Cc1cc(C)c(Oc2cc(NCCC#N)nc(Nc3ccc(C#N)cc3)c2)c(C)c1 | 240 | > 2100 | 22 | 5300 | < 1 | – | – | – | – | – | – | – | – | – | – | – |
| Cc1cc(C)c(Oc2cc(NCC3CC3)nc(Nc3ccc(C#N)cc3)c2)c(C)c1 | 1990 | > 13100 | 17 | 32900 | < 1 | – | – | – | – | – | – | – | – | – | – | – |
| Cc1cc(C)c(Oc2cc(Nc3ccc(C#N)cc3)nc(NC3CC3)c2)c(C)c1 | 35 | > 2580 | 190 | 6710 | < 1 | – | – | – | – | – | – | – | – | – | – | – |
| Cc1cc(C#N)cc(C)c1Oc1cc(NCCN2CCNCC2)nc(Nc2ccc(C#N)cc2)c1 | 430 | > 2070 | 10 | 4430 | < 1 | – | – | – | – | – | – | – | – | – | – | – |
| Cc1cc(C)c(Oc2cc(NCC3CCCO3)nc(Nc3ccc(C#N)cc3)c2)c(C)c1 (centres undefined) | 1790 | > 125000 | > 163 | > 292000 | < 1 | – | – | – | – | – | – | – | – | – | – | – |
| Cc1cc(C#N)cc(C)c1Oc1cc(Cl)nc(Nc2ccc(C#N)cc2)c1 | 840 | > 8550 | 27 | 22900 | < 1 | – | – | – | – | – | – | – | – | – | – | – |
| COCCNc1cc(Oc2c(C)cc(C)cc2C)cc(Nc2ccc(C#N)cc2)n1 | 870 | > 22900 | 65 | 56600 | < 1 | – | – | – | – | – | – | – | – | – | – | – |
| Cc1cc(C#N)cc(C)c1Oc1cc(NCCN(C)C)nc(Nc2ccc(C#N)cc2)c1 | 41 | > 1990 | 114 | 4670 | < 1 | – | – | – | – | – | – | – | – | – | – | 3400 |
| Cc1cc(C#N)cc(C)c1Oc1cc(NCC2CCCO2)nc(Nc2ccc(C#N)cc2)c1 (centres undefined) | 1320 | > 125000 | > 216 | > 285000 | < 1 | – | – | – | – | – | – | – | – | – | – | – |
| C=CCNc1cc(Oc2c(C)cc(C#N)cc2C)cc(Nc2ccc(C#N)cc2)n1 | 400 | > 8770 | 55 | 22200 | < 1 | – | – | – | – | – | – | – | – | – | – | – |
| Cc1cc(C)c(Oc2cc(Cl)nc(Nc3ccc(C#N)cc3)c2)c(C)c1 | 370 | > 2030 | 15 | 5590 | < 1 | – | – | – | – | – | – | – | – | – | – | – |
| C=CCNc1cc(Oc2c(C)cc(C)cc2C)cc(Nc2ccc(C#N)cc2)n1 | 700 | > 9330 | 35 | 24300 | < 1 | – | – | – | – | – | – | – | – | – | – | – |
| CC(C)Nc1cccnc1N1CCN(C(=O)c2cc3cc(NS(C)(=O)=O)ccc3[nH]2)CC1 [DELAVIRDINE] | 33 | – | 30.4 | – | 733 | 1870 | 690 | 2030 | 43 | 2480 | 2100 | – | – | – | – | – |
| O=C1Nc2ccc(Cl)cc2[C@@](C#CC2CC2)(C(F)(F)F)O1 [EFAVIRENZ] | – | – | – | – | – | 210 | 340 | 6.8 | – | – | 100 | – | – | – | – | – |
| Cc1cc(C#N)cc(C)c1Oc1nc(Nc2ccc(C#N)cc2)nc(N)c1Br [ETRAVIRINE] | 3.5 | – | – | – | – | – | 22 | – | – | 3.2 | 6.6 | – | – | – | – | – |
| Cc1ccnc2c1NC(=O)c1cccnc1N2C1CC1 [NEVIRAPINE] | 260 | – | – | – | – | – | 9610 | – | – | – | 830 | – | – | – | – | – |
| Cc1cn([C@H]2C[C@H](N=[N+]=[N-])[C@@H](CO)O2)c(=O)[nH]c1=O [ZIDOVUDINE] | 6.7 | – | > 7.06 | – | > 1050 | 4.8 | 11 | 7.1 | 13 | 8.3 | 5.2 | – | – | – | – | – |

From ChEMBL document CHEMBL3758129, “Design, synthesis and anti-HIV evaluation of novel diarylpyridine derivatives targeting the entrance channel of NNRTI binding pocket” (Eur J Med Chem, 2016)
